Earlier results in patent US20200338088A1, “Methods for Treating Neutrophilic Dermatoses with SYK Inhibitors” (Rush University Medical Center, priority 2018, published 2020).

Tested on: rat collagen-induced arthritis model
Conditions: daily oral dose of 10 mg/kg (10 μg/g), after 7 days

Which ankle inflammation does the source give for `c1cn2cc(-c3ccc4cn[nH]c4c3)nc(Nc3ccc(N4CCOCC4)cc3)c2n1` [GS-9973, 6-(1H-indazol-6-yl)-N-(4-morpholin-4-ylphenyl)imidazo[1,2-a]pyrazin-8-amine] here?
The ankle inflammation was “significantly inhibited ankle inflammation”.
